Source: patent US20250340557A1, “PYRIMIDINE DERIVATIVE” (ASKA PHARMACEUTICAL CO., LTD., priority 2022, published 2025)

Each compound was assayed against T1, human mPGES-1 (Homo sapiens, UniProt O14684) (assay: Test for mPGES-1 inhibitory activity (microsomal enzyme, PGE2 EIA)). Conditions: microsomes from COS-1 cells transfected with human mPGES-1 cDNA; substrate PGH2 1 μM; 4° C., 4 minutes; PGE2 measured by EIA; read-out: h mPGES1 IC50.
T1 construct: made in house; host or cells: COS-1 cells (transient transfection; microsomal fraction used as enzyme)
T1 sequence (O14684 1-152): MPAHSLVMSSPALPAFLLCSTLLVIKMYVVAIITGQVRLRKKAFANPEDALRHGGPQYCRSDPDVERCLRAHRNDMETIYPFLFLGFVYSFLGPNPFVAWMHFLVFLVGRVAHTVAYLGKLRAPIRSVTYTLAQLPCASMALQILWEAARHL
Format: biochemical
Experimental: Test Example 1: Test for mPGES-1 Inhibitory Activity
Microsomes were prepared from COS-1 cells transiently transfected with a plasmid containing human mPGES-1 cDNA, and used as mPGES-1 enzyme. The mPGES-1 enzyme was diluted with a sodium phosphate buffer (pH 7.2) containing reduced glutathione (2.5 mM) and EDTA (1 mM), DMSO or a DMSO solution of a test compound (final concentration of DMSO was 2%) was added to the enzyme, and the mixture was preincubated at 4° C. for 15 minutes. Then, PGH2 (Prostaglandin H2) as the substrate was added at a final concentration of 1 μM to start the enzymatic reaction, and after incubation at 4° C. for 4 minutes, a solution of ferric chloride (25 mM) and citric acid (50 mM) was added to terminate the enzymatic reaction. Generated PGE2 (Prostaglandin E2) was measured by using Prostaglandin E2 Express EIA Kit (Cayman Chemical). IC50 values were determined by using a standard method.
For `O=C(NCc1ccc(C(F)(F)F)c(-c2nc(C(F)(F)F)cc(=O)[nH]2)c1F)C1CN(c2cccc(C(F)(F)F)n2)C1` [Example 26, N-{2-fluoro-3-[6-oxo-4-(trifluoromethyl)-1,6-dihydropyrimidin-2-yl]-4-(trifluoromethyl)benzyl}-1-[6-(trifluoromethyl)pyridin-2-yl]azetidine-3-carboxamide], the IC50 was 0.0041 µM.
`O=C(NCc1ccc(C(F)(F)F)c(-c2nc(C(F)(F)F)cc(=O)[nH]2)c1F)C1CCN(c2ccc(Cl)cn2)CC1` [Example 27, 1-(5-chloropyridin-2-yl)-N-{2-fluoro-3-[6-oxo-4-(trifluoromethyl)-1,6-dihydropyrimidin-2-yl]-4-(trifluoromethyl)benzyl}piperidine-4-carboxamide] gave an IC50 of less than 0.001 µM.
With `O=C(NCc1ccc(C(F)(F)F)c(-c2nccc(=O)[nH]2)c1F)C1CCN(c2ccc(C(F)(F)F)cn2)CC1` [Example 28, N-[2-fluoro-3-(6-oxo-1,6-dihydropyrimidin-2-yl)-4-(trifluoromethyl)benzyl]-1-[5-(trifluoromethyl)pyridin-2-yl]piperidine-4-carboxamide] the IC50 was less than 0.001 µM.
Work on `O=C(NCc1ccc(C(F)(F)F)c(-c2nc(C(F)F)cc(=O)[nH]2)c1F)C1CCN(c2ccc(C(F)(F)F)cn2)CC1` [Example 29, N-{3-[4-(difluoromethyl)-6-oxo-1,6-dihydropyrimidin-2-yl]-2-fluoro-4-(trifluoromethyl)benzyl}-1-[5-(trifluoromethyl)pyridin-2-yl]piperidine-4-carboxamide] yielded an IC50 of 0.011 µM.
Work on `O=C(NCc1ccc(C(F)(F)F)c(-c2nc(C(F)(F)F)cc(=O)[nH]2)c1F)C1CCN(c2ncc(Cl)cc2Cl)CC1` [Example 30, 1-(3,5-dichloropyridin-2-yl)-N-{2-fluoro-3-[6-oxo-4-(trifluoromethyl)-1,6-dihydropyrimidin-2-yl]-4-(trifluoromethyl)benzyl}piperidine-4-carboxamide] yielded an IC50 of less than 0.001 µM.
For `Cc1cccc2ccc(N3CCC(C(=O)NCc4ccc(Cl)c(-c5nc(C(F)(F)F)cc(=O)[nH]5)c4F)CC3)nc12` [Example 31, N-{4-chloro-2-fluoro-3-[6-oxo-4-(trifluoromethyl)-1,6-dihydropyrimidin-2-yl]benzyl}-1-(8-methylquinolin-2-yl)piperidine-4-carboxamide], the IC50 was less than 0.001 µM.
With `O=C(NCc1ccc(Cl)c(-c2nc(C(F)(F)F)cc(=O)[nH]2)c1F)C1CCN(c2ccc(C(F)(F)F)cn2)CC1` [Example 32, N-{4-chloro-2-fluoro-3-[6-oxo-4-(trifluoromethyl)-1,6-dihydropyrimidin-2-yl]benzyl}-1-[5-(trifluoromethyl)pyridin-2-yl]piperidine-4-carboxamide] the IC50 was less than 0.001 µM.
`Cc1nc(-c2c(C(F)(F)F)ccc(CNC(=O)C3CCN(c4ccc(C(F)(F)F)cn4)CC3)c2F)[nH]c(=O)c1F` [Example 33, N-[2-fluoro-3-(5-fluoro-4-methyl-6-oxo-1,6-dihydropyrimidin-2-yl)-4-(trifluoromethyl)benzyl]-1-[5-(trifluoromethyl)pyridin-2-yl]piperidine-4-carboxamide] showed an IC50 of 0.014 µM.
Compound `Cc1cc(=O)[nH]c(-c2c(C(F)(F)F)ccc(CNC(=O)C3CCN(c4ccc(C(F)(F)F)cn4)CC3)c2F)n1` [Example 34, N-[2-fluoro-3-(4-methyl-6-oxo-1,6-dihydropyrimidin-2-yl)-4-(trifluoromethyl)benzyl]-1-[5-(trifluoromethyl)pyridin-2-yl]piperidine-4-carboxamide] has an IC50 of less than 0.001 µM.
`Cc1nc(-c2c(C(F)(F)F)ccc(CNC(=O)C3CCN(c4ccc(C(F)(F)F)cn4)CC3)c2F)[nH]c(=O)c1C` [Example 35, N-[3-(4,5-dimethyl-6-oxo-1,6-dihydropyrimidin-2-yl)-2-fluoro-4-(trifluoromethyl)benzyl]-1-[5-(trifluoromethyl)pyridin-2-yl]piperidine-4-carboxamide] was tested, and the IC50 was 0.011 µM.
In the case of `O=C(NCc1ccc(C(F)(F)F)c(-c2nc(C(F)(F)F)cc(=O)[nH]2)c1F)C1CCN(c2cnc(C(F)(F)F)cn2)CC1` [Example 36, N-{2-fluoro-3-[6-oxo-4-(trifluoromethyl)-1,6-dihydropyrimidin-2-yl]-4-(trifluoromethyl)benzyl}-1-[5-(trifluoromethyl)pyrazin-2-yl]piperidine-4-carboxamide], the IC50 is reported as 0.014 µM.
Work on `O=C(NCc1ccc(C(F)(F)F)c(-c2nc(C(F)(F)F)cc(=O)[nH]2)c1F)C1CCN(c2ncc(Cl)cc2F)CC1` [Example 37, 1-(5-chloro-3-fluoropyridin-2-yl)-N-{2-fluoro-3-[6-oxo-4-(trifluoromethyl)-1,6-dihydropyrimidin-2-yl]-4-(trifluoromethyl)benzyl}piperidine-4-carboxamide] yielded an IC50 of 0.018 µM.
In the case of `O=C(NCc1ccc(C(F)(F)F)c(-c2nc(C(F)(F)F)cc(=O)[nH]2)c1F)C1(F)CCN(c2ccc(C(F)(F)F)cn2)CC1` [Example 38, 4-fluoro-N-{2-fluoro-3-[6-oxo-4-(trifluoromethyl)-1,6-dihydropyrimidin-2-yl]-4-(trifluoromethyl)benzyl}-1-[5-(trifluoromethyl)pyridin-2-yl]piperidine-4-carboxamide], the IC50 is reported as 0.0078 µM.
`O=C(NCc1ccc(C(F)(F)F)c(-c2nc(C(F)(F)F)cc(=O)[nH]2)c1F)C1CCN(c2ncc(C(F)(F)F)cc2F)CC1` [Example 39, N-{2-fluoro-3-[6-oxo-4-(trifluoromethyl)-1,6-dihydropyrimidin-2-yl]-4-(trifluoromethyl)benzyl}-1-[3-fluoro-5-(trifluoromethyl)pyridin-2-yl]piperidine-4-carboxamide] gave an IC50 of less than 0.001 µM.
In the case of `O=C(NCc1ccc(C(F)(F)F)c(-c2nc(C(F)(F)F)cc(=O)[nH]2)c1F)C1CCN(c2ccc(OC(F)(F)F)cn2)CC1` [Example 40, N-{2-fluoro-3-[6-oxo-4-(trifluoromethyl)-1,6-dihydropyrimidin-2-yl]-4-(trifluoromethyl)benzyl}-1-[5-(trifluoromethoxy)pyridin-2-yl]piperidine-4-carboxamide], the IC50 is reported as 0.015 µM.
Work on `O=C(NCc1ccc(C(F)(F)F)c(-c2nc3c(c(=O)[nH]2)CCC3)c1F)C1CCN(c2ccc(C(F)(F)F)cn2)CC1` [Example 41, N-[2-fluoro-3-(4-oxo-4,5,6,7-tetrahydro-3H-cyclopenta[d]pyrimidin-2-yl)-4-(trifluoromethyl)benzyl]-1-[5-(trifluoromethyl)pyridin-2-yl]piperidine-4-carboxamide] yielded an IC50 of 0.026 µM.
In the case of `CCc1nc(-c2c(C(F)(F)F)ccc(CNC(=O)C3CCN(c4ccc(C(F)(F)F)cn4)CC3)c2F)[nH]c(=O)c1F` [Example 42, N-[3-(4-ethyl-5-fluoro-6-oxo-1,6-dihydropyrimidin-2-yl)-2-fluoro-4-(trifluoromethyl)benzyl]-1-[5-(trifluoromethyl)pyridin-2-yl]piperidine-4-carboxamide], the IC50 is reported as less than 0.001 µM.
`Cc1nc(-c2c(C(F)(F)F)ccc(CNC(=O)C3CCN(c4ncc(Cl)cc4Cl)CC3)c2F)[nH]c(=O)c1F` [Example 44, 1-(3,5-dichloropyridin-2-yl)-N-[2-fluoro-3-(5-fluoro-4-methyl-6-oxo-1,6-dihydropyrimidin-2-yl)-4-(trifluoromethyl)benzyl]piperidine-4-carboxamide] was tested, and the IC50 was less than 0.001 µM.
`O=C(NCc1ccc(C(F)(F)F)c(-c2nc(C(F)F)cc(=O)[nH]2)c1F)C1CCN(c2ncc(Cl)cc2Cl)CC1` [Example 45, 1-(3,5-dichloropyridin-2-yl)-N-{3-[4-(difluoromethyl)-6-oxo-1,6-dihydropyrimidin-2-yl]-2-fluoro-4-(trifluoromethyl)benzyl}piperidine-4-carboxamide] was tested, and the IC50 was 0.015 µM.
With `Cc1cc(=O)[nH]c(-c2c(C(F)(F)F)ccc(CNC(=O)C3CCN(c4ncc(Cl)cc4Cl)CC3)c2F)n1` [Example 46, 1-(3,5-dichloropyridin-2-yl)-N-[2-fluoro-3-(4-methyl-6-oxo-1,6-dihydropyrimidin-2-yl)-4-(trifluoromethyl)benzyl]piperidine-4-carboxamide] the IC50 was 0.049 µM.
Work on `Cc1nc(-c2c(C(F)(F)F)ccc(CNC(=O)C3CCN(c4ncc(C(F)(F)F)cc4F)CC3)c2F)[nH]c(=O)c1F` [Example 48, N-[2-fluoro-3-(5-fluoro-4-methyl-6-oxo-1,6-dihydropyrimidin-2-yl)-4-(trifluoromethyl)benzyl]-1-[3-fluoro-5-(trifluoromethyl)pyridin-2-yl]piperidine-4-carboxamide] yielded an IC50 of less than 0.001 µM.
Work on `Cc1cc(=O)[nH]c(-c2c(C(F)(F)F)ccc(CNC(=O)C3CCN(c4ncc(C(F)(F)F)cc4F)CC3)c2F)n1` [Example 49, N-[2-fluoro-3-(4-methyl-6-oxo-1,6-dihydropyrimidin-2-yl)-4-(trifluoromethyl)benzyl]-1-[3-fluoro-5-(trifluoromethyl)pyridin-2-yl]piperidine-4-carboxamide] yielded an IC50 of 0.021 µM.
In the case of `O=C(NCc1ccc(C(F)(F)F)c(-c2nc(C(F)(F)F)cc(=O)[nH]2)c1)C1CCN(c2ccc(C(F)(F)F)cn2)CC1` [Example 50, N-{3-[6-oxo-4-(trifluoromethyl)-1,6-dihydropyrimidin-2-yl]-4-(trifluoromethyl)benzyl}-1-[5-(trifluoromethyl)pyridin-2-yl]piperidine-4-carboxamide], the IC50 is reported as less than 0.001 µM.
